Laboratory results taken from US8546377B2 (AbbVie Inc., priority 2009, dated 2013).
pEC50: −log10 of the molar value. Where two headings read alike, the source gives them in different places.

What was measured:
5HT2C receptors = biological target: T1, 5HT2C receptors (Homo sapiens, UniProt P28335); test: Human 5-HT2C functional assay in CHO-K1 cells (calcium flux, FLIPR); format: cell-based; parameters: expressed in transfected cells; host or cells: CHO-K1 cells; conditions: for EC50: CHO-K1 cells over-expressing 5HT2C, calcium flux, read-out: EC50 (μM), 5-HT2c Agonist Activity; for Emax: percentage relative to the effect of serotonin
T1 sequence (P28335 33-458): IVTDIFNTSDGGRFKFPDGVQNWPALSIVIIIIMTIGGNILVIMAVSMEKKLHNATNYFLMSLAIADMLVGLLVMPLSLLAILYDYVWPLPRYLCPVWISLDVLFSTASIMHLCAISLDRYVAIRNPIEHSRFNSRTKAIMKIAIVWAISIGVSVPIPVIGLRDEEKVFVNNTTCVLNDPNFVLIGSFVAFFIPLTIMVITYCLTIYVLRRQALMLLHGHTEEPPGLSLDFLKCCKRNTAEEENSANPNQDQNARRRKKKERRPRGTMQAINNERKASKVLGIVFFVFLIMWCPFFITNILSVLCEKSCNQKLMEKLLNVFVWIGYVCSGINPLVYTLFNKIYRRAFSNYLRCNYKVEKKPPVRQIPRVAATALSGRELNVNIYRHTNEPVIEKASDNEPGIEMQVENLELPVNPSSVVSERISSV
Method in brief: (§1)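 EC50 came from a 4-parameter logistic fit, with Emax expressed relative to serotonin, of intracellular Ca2+ rises read on FLIPR at 480/530 nm, 25° C, over 3 min. Compounds ran from 10 μM in six 1:10 steps (0.2% DMSO) on serum-starved CHO-K1 transfectants pre-loaded 60 min with Ca4 dye and probenecid.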

5HT2B receptors = biological target: T2, 5HT2B receptors (Homo sapiens, UniProt P41595); test: Human 5-HT2B functional assay in CHO-K1 cells (calcium flux, FLIPR); format: cell-based; conditions: for EC50: CHO-K1 cells over-expressing 5HT2B, calcium flux, read-out: EC50 (μM), 5-HT2B Agonist Activity
T2 construct: expressed in transfected cells; host or cells: CHO-K1 cells
T2 sequence (P41595 whole entry): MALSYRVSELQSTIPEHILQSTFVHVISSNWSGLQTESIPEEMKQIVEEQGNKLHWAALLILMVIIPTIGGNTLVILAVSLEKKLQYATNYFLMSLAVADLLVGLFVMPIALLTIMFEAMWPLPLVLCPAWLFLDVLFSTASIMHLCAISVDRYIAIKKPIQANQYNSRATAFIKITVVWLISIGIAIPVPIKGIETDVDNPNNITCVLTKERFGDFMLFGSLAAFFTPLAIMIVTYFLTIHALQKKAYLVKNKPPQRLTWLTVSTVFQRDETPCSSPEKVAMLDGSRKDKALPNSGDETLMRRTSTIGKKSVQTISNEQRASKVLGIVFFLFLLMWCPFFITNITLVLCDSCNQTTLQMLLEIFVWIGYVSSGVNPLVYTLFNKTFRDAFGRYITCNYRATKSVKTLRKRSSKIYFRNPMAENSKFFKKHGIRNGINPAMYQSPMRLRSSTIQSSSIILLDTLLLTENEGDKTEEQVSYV
Method in brief: as §1

[1] = CHO-K1 cells, read-out: Emax (%), 5-HT2c Agonist Activity
[2] = CHO-K1 cells, percentage relative to the effect of serotonin, read-out: Emax (%), 5-HT2B Agonist Activity
[3] = CHO-K1, read-out: Emax (%), 5-HT2c Agonist Activity, CHO-K1 cells
[4] = CHO-K1, read-out: Emax (%), 5-HT2B Agonist Activity

Row | SMILES | EC50 (5HT2C receptors) [µM] | Emax (5HT2C receptors; [1]) [%] | EC50 (5HT2B receptors) [µM] | Emax (5HT2B receptors; [2]) [%] | pEC50 (5HT2C receptors) | Emax (5HT2C receptors; [3]) [%] | pEC50 (5HT2B receptors) | Emax (5HT2B receptors; [4]) [%]
1 | CCc1ccc2c(c1)N1CCNC[C@@H]1CCO2 [Example 211, (4aS)-10-ethyl-2,3,4,4a,5,6-hexahydro-1H-pyrazino[2,1-d][1,5]benzoxazepine] |  |  |  |  | 7.70 | 70 | 7.40 | 45
2 | O=C1CC2CNCCN2c2cccc(Cl)c2N1 (stereo not shown) [Example 110, 8-chloro-1,2,3,4,4a,5-hexahydropyrazino[1,2-a][1,5]benzodiazepin-6(7H)-one] |  |  |  |  | 8.30 | > 120 | < 5.00 | 
3 | O=C1CC2CNCCN2c2ccc(Cl)cc2N1 (stereo not shown) [Example 51, 9-chloro-1,2,3,4,4a,5-hexahydropyrazino[1,2-a][1,5]benzodiazepin-6(7H)-one] |  |  |  |  | 7.15 | 90 | < 5.00 | 
4 | O=C1C[C@H]2CNCCN2c2cccc(Cl)c2N1 [Example 148, (4aS)-8-chloro-1,2,3,4,4a,5-hexahydropyrazino[1,2-a][1,5]benzodiazepin-6(7H)-one] |  |  |  |  | 8.15 | > 120 | < 5.00 | 
5 | O=C1CC2CNCCN2c2cc(C3CC3)ccc2N1 (stereo not shown) [Example 52, 10-cyclopropyl-1,2,3,4,4a,5-hexahydropyrazino[1,2-a][1,5]benzodiazepin-6(7H)-one] | 0.05 | > 80 | > 10 |  |  |  |  | 
6 | Cc1cc(Cl)cc2c1OCC[C@H]1CNCCN21 [Example 227, (4aS)-10-chloro-8-methyl-2,3,4,4a,5,6-hexahydro-1H-pyrazino[2,1-d][1,5]benzoxazepine] |  |  |  |  | 8.10 | 85 | 7.30 | 20
7 | CCN1C(=O)CC2CN(C)CCN2c2ccc(Cl)cc21 (stereo not shown) [Example 78, 9-chloro-7-ethyl-3-methyl-1,2,3,4,4a,5-hexahydropyrazino[1,2-a][1,5]benzodiazepin-6(7H)-one] | 1 | 50 | > 10 |  |  |  |  | 
8 | COc1cccc(-c2ccc3c(c2)N2CCNCC2CC(=O)N3)c1 (stereo not shown) [Example 65, 10-(3-methoxyphenyl)-1,2,3,4,4a,5-hexahydropyrazino[1,2-a][1,5]benzodiazepin-6(7H)-one] | 0.05 | > 120 | > 10 |  |  |  |  | 

More lines, main results first:

Row | EC50 (5HT2C receptors) [µM] | Emax (5HT2C receptors; [1]) [%] | EC50 (5HT2B receptors) [µM] | Emax (5HT2B receptors; [2]) [%] | SMILES | pEC50 (5HT2C receptors) | Emax (5HT2C receptors; [3]) [%] | pEC50 (5HT2B receptors) | Emax (5HT2B receptors; [4]) [%]
9 | 0.03 | > 120 | 6 | 10 | c1ccc(-c2ccc3c(c2)N2CCNC[C@@H]2CCO3)cc1 [Example 187, (4aS)-10-phenyl-2,3,4,4a,5,6-hexahydro-1H-pyrazino[2,1-d][1,5]benzoxazepine] |  |  |  | 
10 | 0.3 | 90 | > 10 |  | CS(=O)(=O)c1cccc(-c2ccc3c(c2)OCC[C@H]2CNCCN32)c1 [Example 238, (4aS)-9-[3-(methylsulfonyl)phenyl]-2,3,4,4a,5,6-hexahydro-1H-pyrazino[2,1-d][1,5]benzoxazepine] |  |  |  | 
11 | 0.0384 | > 120 | > 10 |  | O=C1CC2CNCCN2c2cc(OCc3ccccc3F)ccc2N1 (stereo not shown) [Example 155, 10-[(2-fluorobenzyl)oxy]-1,2,3,4,4a,5-hexahydropyrazino[1,2-a][1,5]benzodiazepin-6(7H)-one] |  |  |  | 
12 | 0.025 | > 120 | > 10 |  | O=C1CC2CNCCN2c2cc(OCCc3ccccc3)ccc2N1 (stereo not shown) [Example 158, 10-(2-phenylethoxy)-1,2,3,4,4a,5-hexahydropyrazino[1,2-a][1,5]benzodiazepin-6(7H)-one] |  |  |  | 
13 | 0.004 | 110 | > 10 |  | O=C1C[C@H]2CNCCN2c2cc(OCCc3cccc(C(F)(F)F)c3)ccc2N1 [Example 173, (4aS)-10-{2-[3-(trifluoromethyl)phenyl]ethoxy}-1,2,3,4,4a,5-hexahydropyrazino[1,2-a][1,5]benzodiazepin-6(7H)-one] |  |  |  | 
14 | 0.9 | > 120 | 8 | 10 | CC(=O)c1ccc(-c2ccc3c(c2)N2CCNC[C@@H]2CCO3)cc1 [Example 199, 1-{4-[(4aS)-2,3,4,4a,5,6-hexahydro-1H-pyrazino[2,1-d][1,5]benzoxazepin-10-yl]phenyl}ethanone] |  |  |  | 
